From ChEMBL document CHEMBL3045184, “3D-QSAR studies of natural flavonoid compounds as reverse transcriptase inhibitors” (Med Chem Res, 2012) come the findings set out here.

For this experiment, the target named is T1, Avian myoblastosis virus polyprotein II (Avian myeloblastosis virus) (UniProt Q86831).
T1 sequence (whole entry): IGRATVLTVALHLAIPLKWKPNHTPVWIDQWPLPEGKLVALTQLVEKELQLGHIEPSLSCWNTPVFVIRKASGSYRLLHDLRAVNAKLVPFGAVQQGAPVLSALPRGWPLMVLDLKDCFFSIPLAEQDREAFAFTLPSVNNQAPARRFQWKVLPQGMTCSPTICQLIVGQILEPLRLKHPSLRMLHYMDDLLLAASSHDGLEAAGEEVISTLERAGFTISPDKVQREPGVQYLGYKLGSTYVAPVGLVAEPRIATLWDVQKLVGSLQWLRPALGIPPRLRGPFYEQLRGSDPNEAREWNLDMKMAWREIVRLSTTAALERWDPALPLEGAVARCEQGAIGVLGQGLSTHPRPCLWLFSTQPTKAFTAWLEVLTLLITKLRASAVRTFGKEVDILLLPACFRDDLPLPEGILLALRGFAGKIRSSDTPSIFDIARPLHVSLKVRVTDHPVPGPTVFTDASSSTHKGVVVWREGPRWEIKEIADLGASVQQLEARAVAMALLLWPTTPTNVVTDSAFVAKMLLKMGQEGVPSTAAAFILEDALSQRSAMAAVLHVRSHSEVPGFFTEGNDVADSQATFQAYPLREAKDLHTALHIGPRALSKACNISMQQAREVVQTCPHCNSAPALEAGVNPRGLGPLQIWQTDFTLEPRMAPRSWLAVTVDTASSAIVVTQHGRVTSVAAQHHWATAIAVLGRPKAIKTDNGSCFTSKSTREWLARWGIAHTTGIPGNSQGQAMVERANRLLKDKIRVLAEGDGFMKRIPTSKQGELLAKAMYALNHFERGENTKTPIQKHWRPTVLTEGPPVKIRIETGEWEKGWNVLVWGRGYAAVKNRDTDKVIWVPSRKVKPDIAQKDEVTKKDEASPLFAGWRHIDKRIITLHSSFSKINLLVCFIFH
As to the kind of experiment: Inhibition of Avian myeloblastosis virus reverse transcriptase. Also noted: concentration or dose not given beside the values. As to conditions: concentration not given here.
On to `O=c1cc(-c2ccc(O)cc2)oc2c(O)c(O)cc(O)c12`, for which the inhibition (usually how much of the control response was suppressed) was 22%. Then `O=c1c(O)c(-c2ccc(O)cc2O)oc2cc(O)cc(O)c12`, with 40.5%; and `COc1cc2oc(-c3ccccc3)cc(=O)c2c(O)c1OC`, with 45.9%. Then `O=c1cc(-c2ccc(O)cc2)oc2cc(O)c(O)c(O)c12`, with 99.4%; and `COc1c(OC(C)=O)cc2oc(-c3ccccc3)cc(=O)c2c1O`, with 18.3%; and `COc1c(O)cc2oc(-c3ccc(O)cc3)cc(=O)c2c1O`, with 23.3%.

Regarding `O=c1cc(-c2ccccc2)oc2cc(O)c(O)c(O)c12`, the inhibition came to 95%.

In turn, `O=c1cc(-c2ccccc2O)oc2c(O)c(O)cc(O)c12` showed an inhibition of 67.7%. The value for `COc1cc(O)c2c(=O)c(O)c(-c3ccc(OC)c(O)c3)oc2c1` was 68.1%. Then `COc1cc(O)c2c(=O)c(OC)c(-c3ccc(OC)c(OC)c3)oc2c1`, with 9.2%; and `O=c1c(O)c(-c2ccc(O)c(O)c2)oc2cc(O)c(O)c(O)c12`, with 98.4%.

`CC(C)Oc1ccc(-c2cc(=O)c3c(O)cc(O)cc3o2)cc1` returned an inhibition of 55.4%. `CC(C)Oc1ccc(-c2cc(=O)c3c(O)cc(O)cc3o2)cc1OC(C)C`: the inhibition came to 12.2%. The value for `COc1cc2oc(-c3ccc(O)cc3)cc(=O)c2c(O)c1OC` was 50.9%; that for `COc1cccc(O)c1-c1cc(=O)c2c(O)c(OC)c(OC)c(OC)c2o1` was 18%; that for `O=c1c(O)c(-c2ccccc2O)oc2cc(O)cc(O)c12` was 28%. Then `CC(=O)Oc1cc2oc(-c3ccccc3)cc(=O)c2c(OC(C)=O)c1OC(C)=O`, with 71.4%; and `COc1ccc(-c2cc(=O)c3ccc(O)cc3o2)cc1`, with 13.6%; and `COc1ccc(-c2cc(=O)c3c(O)cc(O)cc3o2)cc1`, with 48%. Turning to `COc1cccc(OC)c1-c1cc(=O)c2c(O)c(OC)c(OC)c(OC)c2o1`, the inhibition came out at 5.4%. The value for `COc1cc(-c2oc3cc(O)ccc3c(=O)c2O)ccc1O` was 52.7%. Then `COc1c(O)cc(O)c2c(=O)cc(-c3ccccc3)oc12`, with 36.8%. The value for `COc1c(OC(C)C)cc(O)c2c(=O)cc(-c3ccc(O)cc3)oc12` was 15.4%; that for `COc1ccc(-c2cc(=O)c3c(O)c(O)c(OC)c(O)c3o2)cc1` was 39.1%; that for `COc1ccc(-c2oc3cc(O)cc(O)c3c(=O)c2O)cc1` was 64.6%. `COc1ccc(-c2oc3cc(O)cc(O)c3c(=O)c2O)cc1O` showed an inhibition of 59.7%. Consider `COc1c(O)cc(O)c2c(=O)cc(-c3ccccc3O)oc12`, for which the inhibition came out at 8.5%. Turning to `CC(C)Oc1ccc(-c2cc(=O)c3c(O)cc(O)c(O)c3o2)cc1OC(C)C`, the inhibition turned out to be 17.6%.

For `COc1cc(O)c2c(=O)c(O)c(-c3ccc(O)c(O)c3)oc2c1`, the inhibition came to 50.8%.

Take `COc1cc(O)c2c(=O)cc(-c3ccccc3)oc2c1OC`: the inhibition was 9.8%. The value for `COc1cc2oc(-c3ccccc3)cc(=O)c2c(OC)c1OC` was 29.8%. With `O=c1c(O)c(-c2cc(O)c(O)c(O)c2)oc2cc(O)ccc12`, the inhibition was determined as 87.5%.

On to `COc1c(O)cc2oc(-c3ccccc3)cc(=O)c2c1OC`, for which the inhibition came out at 32.7%. The compound `CC(C)Oc1ccc(-c2cc(=O)c3c(O)cc(OC(C)C)cc3o2)cc1` returned an inhibition of 23.6%. The value for `O=c1c(O)c(-c2ccccc2)oc2cc(O)cc(O)c12` was 42.1%; that for `O=c1c(O)c(-c2ccc(O)c(O)c2)oc2c(O)c(O)cc(O)c12` was 85.1%; that for `O=c1cc(-c2ccccc2)oc2cc(OCc3ccccc3)cc(O)c12` was 34.9%.

In the case of `COc1ccc(-c2cc(=O)c3c(O)cc(OC(C)C)c(OC)c3o2)cc1`, the inhibition worked out at 12%.

With `CC(C)Oc1cc(OC(C)C)c2c(=O)cc(-c3ccccc3)oc2c1`, the inhibition was found to be 24.2%. Consider `O=c1c(O)c(-c2ccc(O)cc2)oc2cc(O)c(O)c(O)c12`, for which the inhibition came out at 97.2%. The value for `O=c1cc(-c2ccc(O)c(O)c2)oc2c(O)c(O)cc(O)c12` was 31.3%; that for `O=c1cc(-c2ccc(O)c(O)c2)oc2cc(O)c(O)c(O)c12` was 91.7%.

Compound `O=c1cc(-c2ccccc2)oc2c(O)c(OCc3ccccc3)cc(O)c12` had an inhibition of 19%. Then `O=c1c(O)c(-c2c(O)cccc2O)oc2cc(O)cc(O)c12`, with 21.3%; and `COc1ccc(-c2cc(=O)c3c(OC)cc(OC)cc3o2)cc1`, with 45.6%. Then `O=c1c(O)c(-c2cc(O)c(O)c(O)c2)oc2cc(O)cc(O)c12`, with 82.5%; and `CC(=O)Oc1ccc(-c2cc(=O)c3c(OC(C)=O)cc(OC(C)=O)cc3o2)cc1`, with 24.7%. Then `COc1ccc(-c2cc(=O)c3c(O)cc(OC)cc3o2)cc1`, with 54.8%; and `O=c1cc(-c2ccccc2)oc2c(O)c(O)cc(O)c12`, with 36.9%; and `CC(C)Oc1ccc(-c2cc(=O)c3c(O)c(O)c(OC(C)C)cc3o2)cc1`, with 18%. For the compound `O=c1c(O)c(-c2ccc(O)cc2)oc2cc(O)cc(O)c12`, the inhibition was 72.6%. Then `O=c1c(O)c(-c2ccc(O)c(O)c2)oc2cc(O)cc(O)c12`, with 41.4%; and `COc1cc(O)c2c(=O)cc(-c3ccccc3OC(C)=O)oc2c1OC`, with 17%. On to `CC(C)Oc1ccc(-c2cc(=O)c3c(O)c(O)c(OC(C)C)c(O)c3o2)cc1`, for which the inhibition was 46.2%. Then `COc1cc2oc(-c3ccc(O)c(O)c3)cc(=O)c2c(O)c1O`, with 91.4%.
